Experimental data from PubChem BioAssay AID1794805 (Yongcheng Song lab at Baylor College of Medicine, 2022).
Active and inactive are the calls of the source.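 The calls were made as follows: active = EC50 under 50 µM in a live-cell viability test; inactive = the rest.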

System: HL60 proliferation, XTT absorbance
Experiment: HL60 leukemia cell growth inhibition, dose response, XTT absorbance (AID 1794805)

EC50	Structure (SMILES)
> 51 µM (inactive)	O=C(NCC1CCNCC1)c1cc2cc(-c3cn[nH]c3)ccc2[nH]1
9 µM	O=C(NCC1CCNCC1)c1cc2cc(-c3ccc(N4CCCCC4)cc3)ccc2s1
10 µM	O=C(NCC1CCNCC1)c1cc2ccc(-c3ccc(N4CCCCC4)cc3)cc2s1
9.7 µM	O=C(NCC1CCNCC1)c1coc2cc(-c3ccc(N4CCCCC4)cc3)ccc12
50 µM	O=C(NCC1CCNCC1)c1cc2cc(-c3ccc(N4CCCCC4)cc3)ccc2[nH]1
> 51 µM (inactive)	NC(=O)c1ccc(-c2ccc3cc(C(=O)NCC4CCNCC4)sc3c2)cc1
26 µM	O=C(NCC1CCNCC1)c1cc2ccc(-c3ccc(N4CCCC4)cc3)cc2s1
> 51 µM (inactive)	NCc1ccc(-c2ccc3cc(C(=O)NCC4CCNCC4)oc3c2)cc1
50 µM	O=C(NCC1CCNCC1)c1c[nH]c2cc(-c3ccc(N4CCCC4)cc3)ccc12
50 µM	O=C(NCC1CCNCC1)c1c[nH]c2cc(-c3ccc(N4CCCCC4)cc3)ccc12
